Experimental data reported in paper PMC4143179 (Journal of Natural Products, 2014).

Tests used:
MDCK-MDR1 cells = details: transport with versus without verapamil
[1] = system: MCF7 breast cancer cell line; assay: Antiproliferation assay; type: cell-based
[2] = intravenous or inhaled administration; cited from earlier work
P-glycoprotein (P-gp) = details: cited from earlier work

SMILES	efflux by P-gp (in words) (MDCK-MDR1 cells)	antiproliferative effects (in words) [1]	time to cross the blood–brain barrier [2] [min]	P-glycoprotein substrate (in words) (P-glycoprotein (P-gp))
COC(=O)[C@@H]1C[C@H](OC(C)=O)C(=O)[C@H]2[C@@]1(C)CC[C@H]1C(=O)O[C@H](CC3=CC(=O)C(OC)=CC3=O)C[C@]21C [Compound 15, (2S,4aR,6aR,7R,9S,10aS,10bR)-Methyl 9-Acetoxy-2-[(4-methoxy-3,6-dioxocyclohexa-1,4-dien-1-yl)methyl]-6a,10b-dimethyl-4,10-dioxododecahydro-1H-benzo[f]isochromene-7-carboxylate]	actively effluxed by P-gp			
COc1cc2nc(N3CCN(C(=O)c4ccco4)CC3)nc(N)c2cc1OC [prazosin]	actively effluxed by P-gp			
Cn1c(=O)c2c(ncn2C)n(C)c1=O [caffeine]	limited efflux by P-gp			
COC(=O)[C@@H]1C[C@H](OC(C)=O)C(=O)[C@H]2[C@@]1(C)CC[C@H]1C(=O)O[C@H](CC3=CC(=O)C(OC)=C(OC)C3=O)C[C@]21C [Compound 14, (2S,4aR,6aR,7R,9S,10aS,10bR)-Methyl 9-Acetoxy-2-[(4,5-dimethoxy-3,6-dioxocyclohexa-1,4-dien-1-yl)methyl]-6a,10b-dimethyl-4,10-dioxododecahydro-1H-benzo[f]isochromene-7-carboxylate]	actively effluxed by P-gp			
COC(=O)[C@@H]1C[C@H](OC(C)=O)C(=O)[C@H]2[C@@]1(C)CC[C@H]1C(=O)O[C@H](c3ccoc3)C[C@]21C [Salvinorin A, salvinorin A]	actively effluxed by P-gp	did not show any detectable antiproliferative effects	≤ 1	substrate for P-glycoprotein
